According to PMC8036666, “Biological and Physico-Chemical Characteristics of Arginine-Rich Peptide Gemini Surfactants with Lysine and Cystine Spacers” (International Journal of Molecular Sciences, 2021):
In brackets after ≈: the same amount, converted by molar mass. Where a SMILES comes first, the peptide text is derived from it. Side-chain parts run from the residue outwards. The star is where a group is joined. Myristoyl = CCCCCCCCCCCCCC(=O)*; Lauroyl = CCCCCCCCCCCC(=O)*; Octanoyl = CCCCCCCC(=O)*

Key:
[1] = test system: Staphylococcus aureus ATCC 33591; conditions: ATCC 33591, 24 h
Experimental: The Acinetobacter baumannii ATCC BAA-1605, Enterococcus faecium ATCC 700221, Escherichia coli ML-35 ATCC 43827, Klebsiella aerogenes ATCC 13048, Klebsiella pneumoniae ATCC 700603, Pseudomonas aeruginosa ATCC 9027, Staphylococcus aureus ATCC 25923, Staphylococcus aureus ATCC 33591, Candida albicans ATCC 10231, Candida glabrata ATCC 15126, strains were acquired from the American Type Culture Collection (ATCC). All the strains were stored at −80 °C in Roti-Store cryo vials and before the tests were transferred into fresh Mueller–Hinton broth (MHB, Biocorp, Warsaw, […], Steinheim, Germany) for fungi and incubated for 24 h at 37 °C. Then, the cultures were seeded on the Mueller–Hinton agar (BioMaxima, Lublin, Poland) or Sabouraud dextrose agar (SDA, BioMaxima, Lublin, Poland) plates, respectively, and incubated as just mentioned. These agar cultures were used for further microbiological assays. […]
(§1) The MICs were determined by the broth microdilution method according to the Clinical and Laboratory Standard Institute guidelines. […] The experiments were conducted on 96-well microtiter polystyrene plates (Kartell, Noviglio, Italy). The growth was assessed visually after incubation, and the MIC was assumed as the lowest peptide concentration at which a noticeable growth of microorganisms was inhibited. All experiments were conducted in triplicate.

[2] = test system: Acinetobacter baumannii ATCC BAA 1605; conditions: ATCC BAA 1605, 24 h
Experimental: (§2) The Acinetobacter baumannii ATCC BAA-1605, Enterococcus faecium ATCC 700221, Escherichia coli ML-35 ATCC 43827, Klebsiella aerogenes ATCC 13048, Klebsiella pneumoniae ATCC 700603, Pseudomonas aeruginosa ATCC 9027, Staphylococcus aureus ATCC 25923, Staphylococcus aureus ATCC 33591, Candida albicans ATCC 10231, Candida glabrata ATCC 15126, strains were acquired from the American Type Culture Collection (ATCC). All the strains were stored at −80 °C in Roti-Store cryo vials and before the tests were transferred into fresh Mueller–Hinton broth (MHB, Biocorp, Warsaw, Poland) for bacteria or RPMI-1640 (Sigma-Aldrich, Steinheim, Germany) for fungi and incubated for 24 h at 37 °C. Then, the cultures were seeded on the Mueller–Hinton agar (BioMaxima, Lublin, Poland) or Sabouraud dextrose agar (SDA, BioMaxima, Lublin, Poland) plates, respectively, and incubated as just mentioned. These agar cultures were used for further microbiological assays. Cell densities for all assays were adjusted spectrophotometrically (Multiskan GO Microplate Spectrophotometer, Thermo Fisher Scientific, Vantaa, Finland) at 600 and 530 nm for bacteria and fungi, respectively.
as §1

[3] = test system: Enterococcus faecium ATCC 700221; conditions: ATCC 700221, 24 h
Experimental: as §2, §1

[4] = test system: Klebsiella aerogenes ATCC 13048; conditions: ATCC 13048, 24 h
Experimental: as §2, §1

[5] = test system: Klebsiella pneumoniae ATCC 700603; conditions: ATCC 700603, 24 h
Experimental: as §2, §1

[6] = test system: Pseudomonas aeruginosa ATCC 9027; conditions: ATCC 9027, 24 h
Experimental: as §2, §1

[7] = test system: Staphylococcus aureus ATCC 25923; conditions: ATCC 25923, 24 h
Experimental: as §2, §1

[8] = test system: Acinetobacter baumannii ATCC BAA 1605; assay type: cell-based; conditions: ATCC BAA 1605, 24 h
Experimental: (§3) Biofilm is associated with life-threating infections due to its outstanding resistance to antibiotics. In this study, the antibiofilm characteristics of USCLs and gemini surfactants were evaluated.
(§4) The MBECs were determined as described previously using 96-well polystyrene flat-bottom plates. For this purpose, 24 h cultures of microorganisms were diluted to obtain a final density of 5.0 × 10^5 CFU/mL and 2.0 × 10^5 CFU/mL of bacteria and fungi, respectively. Microorganisms were diluted in MHB or RPMI-1640 with 2% D-glucose (bacteria and fungi, respectively). Briefly, 100 µL of cell suspension was added into the test plates. After 24 h of incubation at 37 °C, the wells were rinsed three times with a PBS (pH 7.4) to remove non-adherent cells. Subsequently, 100 μL of the test compounds in a concentration range (1–512 μg/mL) were added to each well. After 24 h of incubation at 37 °C, 20 μL of a cell viability reagent was added (resazurin, 4 g/L; Sigma Aldrich, St. Louis, MO, USA). The MBEC was read after 1 h. The determined values were recorded as the lowest concentration at which the reduction of resazurin (from blue to pink) was lower or equal to 10 ± 0.5% as compared to the positive (100%) and negative (0%) controls. The reduction was monitored by measuring absorbance at 570 nm (reduced) and 600 nm (oxidized) using a microplate spectrophotometer (Multiskan GO Microplate Spectrophotometer, Thermo Fisher Scientific, Vantaa, Finland). All experiments were conducted in triplicate.

[9] = test system: Candida albicans ATCC 10231; assay type: cell-based; conditions: ATCC 10231, 24 h
Experimental: as §3, §4

[10] = test system: Candida glabrata ATCC 15126; assay type: cell-based; conditions: ATCC 15126, 24 h
Experimental: as §3, §4

[11] = test system: Enterococcus faecium ATCC 700221; assay type: cell-based; conditions: ATCC 700221, 24 h
Experimental: as §3, §4

[12] = test system: Klebsiella aerogenes ATCC 13048; assay type: cell-based; conditions: ATCC 13048, 24 h
Experimental: as §3, §4

[13] = test system: Klebsiella pneumoniae ATCC 700603; assay type: cell-based; conditions: ATCC 700603, 24 h
Experimental: as §3, §4

[14] = test system: Pseudomonas aeruginosa ATCC 9027; assay type: cell-based; conditions: ATCC 9027, 24 h
Experimental: as §3, §4

[15] = test system: Staphylococcus aureus ATCC 25923; assay type: cell-based; conditions: ATCC 25923, 24 h
Experimental: as §3, §4

[16] = test system: Staphylococcus aureus ATCC 33591; assay type: cell-based; conditions: ATCC 33591, 24 h
Experimental: as §3, §4

Compound | MIC Staphylococcus aureus ATCC 33591 [1] [µg/mL] | MIC Acinetobacter baumannii ATCC BAA 1605 [2] [µg/mL] | MIC Enterococcus faecium ATCC 700221 [3] [µg/mL] | MIC Klebsiella aerogenes ATCC 13048 [4] | MIC Klebsiella pneumoniae ATCC 700603 [5] [µg/mL] | MIC Pseudomonas aeruginosa ATCC 9027 [6] [µg/mL] | MIC Staphylococcus aureus ATCC 25923 [7] [µg/mL] | MBEC Acinetobacter baumannii ATCC BAA 1605 [8] [µg/mL] | MBEC Candida albicans ATCC 10231 [9] [µg/mL] | MBEC Candida glabrata ATCC 15126 [10] [µg/mL] | MBEC Enterococcus faecium ATCC 700221 [11] [µg/mL] | MBEC Klebsiella aerogenes ATCC 13048 [12] [µg/mL] | MBEC Klebsiella pneumoniae ATCC 700603 [13] [µg/mL] | MBEC Pseudomonas aeruginosa ATCC 9027 [14] [µg/mL] | MBEC Staphylococcus aureus ATCC 25923 [15] [µg/mL] | MBEC Staphylococcus aureus ATCC 33591 [16] [µg/mL]
CCCCCCCCCCCC(=O)N[C@@H](CCCNC(=N)N)C(=O)N[C@@H](CCCNC(=N)N)C(=O)NCCCC[C@H](NC(=O)[C@H](CCCNC(=N)N)NC(=O)[C@H](CCCNC(=N)N)NC(=O)CCCCCCCCCCC)C(N)=O [Compound B3] (Lauroyl-Arg-Arg-Lys([Arg-Arg-Lauroyl])-NH2) | 2 (≈ 1.76 µM) | 8 (≈ 7.05 µM) | 2 (≈ 1.76 µM) | 32 µg/mL (≈ 28.2 µM) | 64 (≈ 56.4 µM) | 4 (≈ 3.53 µM) | 4 (≈ 3.53 µM) | 256 | 32 | 64 | 16 | 128 | 128 | 512 | 64 | 16
CCCCCCCCCCCCCC(=O)N[C@@H](CCCNC(=N)N)C(=O)N[C@@H](CCCNC(=N)N)C(=O)NCCCC[C@H](NC(=O)[C@H](CCCNC(=N)N)NC(=O)[C@H](CCCNC(=N)N)NC(=O)CCCCCCCCCCCCC)C(N)=O [Compound B4] (Myristoyl-Arg-Arg-Lys([Arg-Arg-Myristoyl])-NH2) | 64 (≈ 53.8 µM) | 64 (≈ 53.8 µM) | 8 (≈ 6.72 µM) | 32 µg/mL (≈ 26.9 µM) | 32 (≈ 26.9 µM) | 32 (≈ 26.9 µM) | 64 (≈ 53.8 µM) | 512 | 64 | 64 | 64 | 256 | 512 | >512 | 256 | 128
CCCCCCCC(=O)N[C@@H](Cc1ccccc1)C(=O)N[C@@H](CCCNC(=N)N)C(=O)N[C@@H](CCCNC(=N)N)C(=O)NCCCC[C@H](NC(=O)[C@H](CCCNC(=N)N)NC(=O)[C@H](CCCNC(=N)N)NC(=O)[C@H](Cc1ccccc1)NC(=O)CCCCCCC)C(N)=O [Compound B5] (Octanoyl-FRRK([Arg-Arg-Phe-Octanoyl])-NH2) | 4 (≈ 3.04 µM) | 32 (≈ 24.3 µM) | 4 (≈ 3.04 µM) | 256 (−/−) µg/mL | 128 (≈ 97.2 µM) | 8 (≈ 6.08 µM) | 2 (≈ 1.52 µM) | 256 | 32 | 256 | 8 | 256 | 256 | 512 | 16 | 4
